This is an account of results in patent US10485902B2, “Antibiotic drug release sheath” (Thomas Jefferson University, priority 2015, dated 2019).

Where two headings read alike, the source gives them in different places.

The subject of series [1] is osteoblastic (MC3T3-E1) and chondrocytic (N1511) cells. Particulars: cited from earlier work.
A short description of series [2]: US-mediated methylene blue release from PLA-sealed multiport (1 mm) PEEK sheath. The format is physicochemical. On the procedure: Multiple 1 mm holes (left) and one 3 mm hole (right) sheaths were submerged in water and release of methylene blue (MeB) or MeB+VAN was measured spectrophotometrically.
During the first 15 min of immersion, 11 mg and 3 mg of drug were released (due to surface amounts in PLA) from the groups. […] With a 15 min insonation (5 MHz, 3 MPa), 15 mg was released within one hour and the remaining 24 mg of drug was released by 72 hrs^39. (4) Three PLA coatings for US rupture using highly porous PEEK.

A short description of series [3]: VAN release from PLA-sealed sheaths in spinal levels of a cadaverous rabbit. Particulars: 4 mg VAN-loaded PLA-sealed sheaths; 20 min, 5 MHz, 3 MPa pk-pk; US parameters not optimized. On the procedure: (§1) The first set of experiments uses rabbit carcasses to establish US parameters that reproducibly release the desired amounts of ABX within a mock spinal fusion site. Preliminary tests on such animals in which VAN-loaded (4 mg), PLA-sealed sheaths were placed in 4 spinal levels of a cadaverous rabbit. Site 1 and Site 3 were inoculated with 10^4 CFU S. aureus in 100 μL PBS, and Site 2 and 4 were encased in plastic to collect released VAN. Without any optimization of US parameters, ˜50% of the VAN was released by insonation (20 min, 5 MHz, 3 MPapk-pk) and caused ˜10× less bacterial colonization.

Series [4] concerns S. aureus. As to conditions: cited from earlier work.
The next series concerns bacteria. As to conditions: US plus VAN; cited from earlier work.
The nature of series [5]: US release of VAN from porous PLA-sealed PEEK block. The series is classed as physicochemical. Particulars: 10 mg VAN loaded; 10 min US insonation (5 MHz, 4 MPa). On the procedure:
During the first 15 min of immersion, 11 mg and 3 mg of drug were released (due to surface amounts in PLA) from the groups. […] […] (4) Three PLA coatings for US rupture using highly porous PEEK.

Series [6] deals with S. aureus. Kind of series: Bacterial colonization of inoculated spinal sites in a cadaverous rabbit. As to conditions: sites inoculated with 10^4 CFU S. aureus; insonation 20 min, 5 MHz, 3 MPa pk-pk. On the procedure: as §1
A further series relates to bacterial lawn. The experiment in a line: Passive elution of VAN from allograft bone and bacterial killing (FIG. 6). Particulars: initial loading 10 mg/ml VAN. On the procedure: Antibacterial activity of bone allografts: comparison of a new vancomycin-tethered allograft with allograft loaded with adsorbed vancomycin. This is an example of the elution that can be achieved without enhancement by ultrasound.
(initial loading: 10 mg/ml VAN, FIG. 6). However, a preferred sheath is sealed so that it retains antibiotics without leakage for up to 7 days (to allow for triggered release at any time prior to patient discharge) and then releases >99% of the antibiotics within 24 hrs. of US insonation. Accordingly, release can be determined based on the specific needs of the patient. Therapeutic materials loaded into the sheath may be liquids, solids, gels, or combinations thereof. Release profile of these different materials may require different structures to allow for the appropriate release.

As to `O=C(O)c1cn(C2CC2)c2cc(N3CCNCC3)c(F)cc2c1=O` [CIP, ciprofloxacin], in series [1], the “concentration at which toxicity / cell death initiates” value was 150 to 200 µg/mL.

Consider `CN(C)c1ccc2nc3ccc(=[N+](C)C)cc-3sc2c1` [MeB, methylene blue], for which, in series [2] (US insonated, over 8 days), the “increase in MeB release, US group” value is reported as 757%. In addition, in series [2] (no US, at 2 days), the “increase in MeB release, non-insonated controls” value came to 26%. The “additional MeB release, non-insonated controls” value in series [2] (no US, out to 6 days) was “no additional release”.

Regarding `NC[C@H]1O[C@H](O[C@H]2[C@H](O)[C@@H](O[C@H]3O[C@H](CO)[C@@H](O)[C@H](N)[C@H]3O)[C@H](N)C[C@@H]2N)[C@H](N)C[C@@H]1O` [TOB, tobramycin], the “concentration at which toxicity / cell death initiates” value in series [1] was approximately 500 µg/mL.

On to `CN[C@H](CC(C)C)C(=O)N[C@H]1C(=O)N[C@@H](CC(N)=O)C(=O)N[C@H]2C(=O)N[C@H]3C(=O)N[C@H](C(=O)N[C@H](C(=O)O)c4cc(O)cc(O)c4-c4cc3ccc4O)[C@H](O)c3ccc(c(Cl)c3)Oc3cc2cc(c3O[C@@H]2O[C@H](CO)[C@@H](O)[C@H](O)[C@H]2O[C@H]2C[C@](C)(N)[C@H](O)[C@H](C)O2)Oc2ccc(cc2Cl)[C@H]1O` [VAN, vancomycin], for which, in series [1] (MC3T3-E1 and N1511 cells), the “concentration at which toxicity / cell death initiates” value was “above 1 mg/ml” and the toxicity in words entry was “low toxicity”. In series [3], the “VAN released by insonation” value is approximately 50%. Besides, in the series with S. aureus [4] (100 ug/ml of VAN (FIG. 2C)), the “bacterial levels on metal surface versus 0 and 4 ug/ml VAN” value was “massive reduction in bacterial levels”. Besides, the “reduction of bacterial colonization” value with S. aureus [4] (1 hr., 100× MIC) is on record as “many-fold”. Further, the “further decrease of bacterial numbers by US in the presence of VAN” value in the series on bacteria is listed as 50-90%. In addition, in series [5], the “released VAN after US insonation” value turned out to be 7.5 mg. This compound came in with a less bacterial colonization with S. aureus [6] of approximately 10 ×. For the same compound, in the series with bacterial lawn (especially within the first 48 hr.), the bacterial killing result is “significant bacterial killing”. In addition, the “elution from allograft bone” value in the series with bacterial lawn (no ultrasound) is reported as “rapid passive elution”.
